Assay results published in patent US20260053773A1, “PHARMACEUTICAL COMPOSITION AND USE THEREOF” (AUHUI TONGOO PHARMACEUTICAL TECHNOLOGY CO., LTD., priority 2022, published 2026).
pIC50: −log10 of the molar value. Where “and” joins values, the source holds several entries; their conditions need not be identical. Identical values can stand only once. Like-named read-outs stand apart in the source and are kept apart here.

Assays:
[1] = tested on: human proximal tubule cells (HK-2); experiment: Lactate dehydrogenase (LDH) release from HK-2 cells exposed to COM crystals; format: cell-based; details: 200 μM CA, 20 μM GaA
Excerpt: (§1) Studies have shown that reducing calcium oxalate crystallization, crystal-cell interactions, and cellular damage can prevent stone formation to some extent.
Lactate dehydrogenase (LDH) is a cytoplasmic enzyme released into the extracellular space when the cell membrane ruptures, so the amount of LDH released can be used as a sign of cell membrane integrity.

[2] = tested on: HK-2 cells; experiment: Adhesion of COM crystals to HK-2 cells in vitro; format: cell-based; details: Homo sapiens, 200 μM CA alone, compared with the blank group without inhibitor, read-out: inhibitory effect on COM crystal adhesion
Excerpt: as §1

[3] = Inhibition of COM crystal growth in three growth directions, inhibitors alone and in combination pairs; details: for concentration of the single inhibitor achieving 10% inhibition of crystal growth / concentration of the single inhibitor achieving 30% inhibition of crystal growth / concentration of the single inhibitor achieving 70% inhibition of crystal growth / pIC50: inhibitor alone; for pIC50: read-out: concentration of the single inhibitor achieving 50% inhibition of crystal growth
Protocol: Different concentrations of citric acid (CA) and ellagic acid (EA) were added to 25 ml of deionized water, the supersaturation of the solution was controlled at S=2.4, and the growth process of the crystal was monitored.
The hollow symbols in the figure represent the concentration required for a single inhibitor to achieve a certain effect, and the same solid symbols represent the concentration required for a combination of the inhibitors to achieve the same effect.
Different concentrations of citric acid (CA) and gallic acid (GaA) were added to 25 ml of deionized water, and the growth process of the crystal was monitored.
Different concentrations of citric acid (CA) and pyrogallol (PGA) were added to 25 ml of deionized water, and the growth process of the crystal was monitored.
Different concentrations of citric acid (CA) and protocatechuic acid (PrA) were added to 25 ml of deionized water, and the growth process of the crystal was monitored.
Comparative Example 1 differed from Example 1 merely in that ellagic acid was replaced with albumin, and the other preparation methods were the same as those in Example 1.
Comparative Example 2 differed from Example 1 merely in that ellagic acid was replaced with o-hydroxybenzoic acid, and the other preparation methods were the same as those in Example 1.
Different concentrations of hydroxycitric acid (HCA) and ellagic acid (EA) were added to 25 ml of deionized water, supersaturation of the solution was controlled at S=2.4, and the growth process of the crystal was monitored.
Different concentrations of hydroxycitric acid (HCA) and gallic acid (GaA) were added to 25 ml of deionized water, and the growth process of the crystal was monitored.
Different concentrations of potassium citrate (KCA) and ellagic acid (EA) were added to 25 ml of deionized water, the supersaturation of the solution was controlled at S=2.4, and the growth process of the crystal was monitored.
Different concentrations of potassium citrate (KCA) and gallic acid (GaA) were added to 25 ml of deionized water, and the growth process of the crystal was monitored.

[4] = tested on: human proximal tubule cells (HK-2); experiment: Cell death/survival of HK-2 cells exposed to COM crystals; format: cell-based; details: for synergistic enhancement order in improving cell activity: polyphenol (20 μM GaA, 20 μM EA, 40 μM PGA, 200 μM PrA) combined with citric acid 200 μM
Protocol: Studies have shown that reducing calcium oxalate crystallization, crystal-cell interactions, and cellular damage can prevent stone formation to some extent. On this basis, the present example further verified the combined effect of the pharmaceutical composition of citric acid (200 μM) and polyphenol molecules (20 μM GaA, 20 μM EA, 40 μM PGA, 200 µM PrA) in reducing cellular damage and crystal adhesion.
In order to explore the combined effects of the pharmaceutical composition on reducing crystal toxicity to cells, an in vitro model of direct exposure to COM crystals was selected in the present example to detect short-term cellular damage. In a culture medium environment with or without inhibitors, mature human proximal tubule cells (HK-2) were exposed to COM crystal suspension medium for the indicated times. […] However, in the presence of CA, the amount of cell death was reduced by 50% (FIG. 6).

[5] = related studies; cited from earlier work

Compound | LDH release compared with the control group [1] | inhibition at 200 µM [2] | concentration of the single inhibitor achieving 10% inhibition of crystal growth ([3]; [001] direction) | concentration of the single inhibitor achieving 30% inhibition of crystal growth ([3]; [001] direction) | concentration of the single inhibitor achieving 70% inhibition of crystal growth ([3]; [001] direction) | pIC50 ([3]; [001] direction) | concentration of the single inhibitor achieving 10% inhibition of crystal growth ([3]; [021] direction) | concentration of the single inhibitor achieving 30% inhibition of crystal growth ([3]; [021] direction) | concentration of the single inhibitor achieving 70% inhibition of crystal growth ([3]; [021] direction) | pIC50 ([3]; [021] direction) | concentration of the single inhibitor achieving 10% inhibition of crystal growth ([3]; [121] direction) | concentration of the single inhibitor achieving 30% inhibition of crystal growth ([3]; [121] direction) | concentration of the single inhibitor achieving 70% inhibition of crystal growth ([3]; [121] direction) | pIC50 ([3]; [121] direction) | reduction of the amount of cell death ([4]; HK-2 cells exposed to COM crystals 24 hours, CA 200 μM) | inhibitory effect on calcium oxalate crystallization [5] | synergistic enhancement order in improving cell activity [4] | effect compared with citric acid ([3]; inhibition of COM crystal growth)
O=C(O)CC(O)(CC(=O)O)C(=O)O [CA, citric acid] | 195.17% | 30% | 0.0108 mM | 0.0369 mM | 0.1254 mM | 4.15 | 0.0121 mM | 0.0409 mM | 0.1380 mM | 4.10 | 0.0135 mM | 0.0458 mM | 0.1550 mM | 4.05 | 50% | 60% | – | –
O=c1oc2c(O)c(O)cc3c(=O)oc4c(O)c(O)cc1c4c23 [EA, ellagic acid] | – | – | 8.4e-06 mM and 1.04e-05 mM and 1.05e-05 mM | 3.86e-05 mM and 3.09e-05 mM and 3.85e-05 mM | 0.0001322 mM and 0.0001041 mM and 0.0001312 mM | 7.12 and 7.22 | 1.17e-05 mM and 9.4e-06 mM and 1.16e-05 mM | 3.98e-05 mM and 3.2e-05 mM and 3.99e-05 mM | 0.0001369 mM and 0.0001095 mM and 0.0001358 mM | 7.11 and 7.25 | 1.64e-05 mM and 1.31e-05 mM and 1.65e-05 mM | 5.62e-05 mM and 4.49e-05 mM and 5.61e-05 mM | 0.0001884 mM and 0.00015 mM and 0.0001879 mM | 6.96 and 7.05 | – | – | GaA>PcA>PGA>EA | –
O=C(O)c1cc(O)c(O)c(O)c1 [GaA, gallic acid] | – | – | 0.0003716 mM and 0.0004677 mM and 0.0004678 mM | 0.0015906 mM and 0.0012801 mM and 0.00159 mM | 0.0053799 mM and 0.0043049 mM and 0.0053797 mM | 5.51 and 5.62 | 0.0003743 mM and 0.0002994 mM and 0.0003744 mM | 0.0012912 mM and 0.0010221 mM and 0.001291 mM | 0.0043601 mM and 0.003488 mM and 0.00436 mM | 5.60 and 5.74 | 0.0004959 mM and 0.0003967 mM | 0.0016841 mM and 0.0013473 mM and 0.0016842 mM | 0.0056887 mM and 0.004551 mM and 0.0056881 mM | 5.48 and 5.58 | – | – | GaA>PcA>PGA>EA | –
O=C(O)CC(O)(C(=O)O)C(O)C(=O)O (stereo not drawn) [HCA, hydroxycitric acid] | – | – | 0.0088 mM | 0.0281 mM | 0.1003 mM | 4.25 | 0.0096 mM | 0.0320 mM | 0.1104 mM | 4.21 | 0.0110 mM | 0.0367 mM | 0.1240 mM | 4.14 | – | – | – | –
O=C([O-])CC(O)(CC(=O)[O-])C(=O)[O-].[K+].[K+].[K+] [KCA, potassium citrate] | – | – | 0.0106 mM | 0.0369 mM | 0.1253 mM | 4.15 | 0.0123 mM | 0.0401 mM | 0.1369 mM | 4.10 | 0.0135 mM | 0.0451 mM | 0.1547 mM | 4.06 | – | – | – | almost the same
Oc1cccc(O)c1O [PGA, pyrogallol] | – | – | 0.0021 mM | 0.0073 mM | 0.0245 mM | 4.85 | 0.0018 mM | 0.0062 mM | 0.0210 mM | 4.92 | 0.0027 mM | 0.0091 mM | 0.0309 mM | 4.75 | – | – | GaA>PcA>PGA>EA | –
O=C(O)c1ccc(O)c(O)c1 [PrA, protocatechuic acid] | – | – | 0.0255 mM | 0.0982 mM | – | 3.58 | 0.0187 mM | 0.0702 mM | – | 3.73 | 0.0307 mM | 0.1174 mM | – | 3.50 | – | – | GaA>PcA>PGA>EA | –
